Our source for the IC50 values is patent publication US20170166555A1, “FUNCTIONALISED AND SUBSTITUTED INDOLES AS ANTI-CANCER AGENTS” (Novogen Limited, priority 2013, published 2017).

Common to all, as to test: Anti-proliferative assay, cell-titre luminescent reagent, 72 h (GVK-BIO)
Common to all, as to type: cell-based

Assay [1] deals with CaCo2 colorectal cancer cells. The procedure, abridged: (§1)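 Luminescence, read 30 min after reagent addition, was normalized to untreated or vehicle-only wells. Dosing followed a 24 h attachment period at 37 °C in 5% CO2. Values are either IC50s from linear regression (4 concentrations, 30 to 0.03 μM) or EC50s from nonlinear variable-slope fits (6 concentrations, 30 to 0.1 μM).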

The test system of another assay is SK-Mel-28 melanoma cells. The procedure, abridged: as §1
Assay [2] deals with MDA-MB-231 triple negative breast cancer cells. The method in brief:
as §1

Assay [3] has as its system A549 non-small cell lung carcinoma cells. Conditions: read-out: IC50/μM Lung (NSLC) A549. The method in brief: as §1
For assay [4], the system named is SK-N-SH neuroblastoma cells. The procedure, abridged: as §1
Assay [5] concerns PC3 prostate cancer cells. The method in brief:
as §1

For assay [6], the system named is DU145 prostate cancer cells. The method in brief:
as §1

Where [7] appears, read: Homo sapiens, Caco-2, 72 h, 30, 3, 0.3 and 0.03 μM, linear regression (Tables 2-4).
[8] abbreviates: Homo sapiens, SK-MEL-28, 72 h, 30, 3, 0.3 and 0.03 μM, linear regression (Tables 2-4).
[9] abbreviates: Homo sapiens, MDA-MB-231, 72 h, 30, 3, 0.3 and 0.03 μM, linear regression (Tables 2-4).
The mark [10] stands for this setting: Homo sapiens, A549, 72 h, 30, 3, 0.3 and 0.03 μM, linear regression (Tables 2-4).
Setting [11] is: Homo sapiens, SK-N-SH, 30, 3, 0.3 and 0.03 μM, linear regression (Tables 2-4).
[12] abbreviates: 30, 3, 0.3 and 0.03 μM, linear regression (Tables 2-4).
[13] abbreviates: Homo sapiens, DU-145, 72 h, 30, 3, 0.3 and 0.03 μM, linear regression (Tables 2-4).
The mark [14] stands for this setting: Homo sapiens, Caco-2, 72 h, 30, 10, 3, 1, 0.3 and 0.1 μM, nonlinear regression (Table 5).
The mark [15] stands for this setting: Homo sapiens, SK-MEL-28, 72 h, 30, 10, 3, 1, 0.3 and 0.1 μM, nonlinear regression (Table 5).
Setting [16] is: Homo sapiens, MDA-MB-231, 72 h, 30, 10, 3, 1, 0.3 and 0.1 μM, nonlinear regression (Table 5).
Setting [17] is: Homo sapiens, A549, 72 h, 30, 10, 3, 1, 0.3 and 0.1 μM, nonlinear regression (Table 5).
[18] abbreviates: Homo sapiens, SK-N-SH, 30, 10, 3, 1, 0.3 and 0.1 μM, nonlinear regression (Table 5).
Setting [19] is: 30, 10, 3, 1, 0.3 and 0.1 μM, nonlinear regression (Table 5).
Where [20] appears, read: Homo sapiens, DU-145, 72 h, 30, 10, 3, 1, 0.3 and 0.1 μM, nonlinear regression (Table 5).

The structures appear in SMILES notation. Where two headings read alike, the source gives them in different places.

For the compound `CN(C)CCCn1ccc2cc(Cc3ccc(C(=O)Nc4ccc(F)cc4)cc3)ccc21` [Compound 4077, 4-((1-(3-(dimethylamino)propyl)-1H-indol-5-yl)methyl)-N-(4-fluorophenyl)benzamide], the IC50 came out at 3.3 µM in assay [1] (setting [7]); 2.7 µM with SK-Mel-28 melanoma cells (setting [8]); 3.4 µM in assay [2] (setting [9]); 3.3 µM in assay [3] (setting [10]); 3.1 µM in assay [4] (setting [11]); 2.8 µM in assay [5] (setting [12]). The compound also displayed an IC50 in assay [6] (setting [13]) of 3.2 µM.

With `Cc1c(C)n(CCCN(C)C)c2ccc(Nc3ccc(C(=O)Nc4ccc5c(c4)OCO5)cc3)cc12` [Compound 4106, N-(benzo[d][1,3]dioxol-5-yl)-4-((1-(3-(dimethylamino)propyl)-2,3-dimethyl-1H-indol-5-yl)amino)benzamide], the IC50 in assay [1] (setting [7]) was 2.8 µM; in the assay on SK-Mel-28 melanoma cells (setting [8]), 2.6 µM; in assay [2] (setting [9]), 1.9 µM; in assay [3] (setting [10]) it was 2.4 µM; in assay [4] (setting [11]), 1.8 µM; in assay [5] (setting [12]), 3.6 µM. The compound also registered an IC50 in assay [6] (setting [13]) of 3.1 µM.

For `CN(C)CCCn1ccc2cc(Oc3cccc(C(=O)Nc4ccc(F)cc4)c3)ccc21` [Compound 4056, 3-((1-(3-(dimethylamino)propyl)-1H-indol-5-yl)oxy)-N-(4-fluorophenyl)benzamide], the IC50 was 4.7 µM in assay [1] (setting [7]); 3.4 µM in the assay on SK-Mel-28 melanoma cells (setting [8]); 3 µM in assay [2] (setting [9]); 4 µM in assay [3] (setting [10]); 3.4 µM in assay [4] (setting [11]); 7 µM in assay [5] (setting [12]). Moreover, in assay [6] (setting [13]), the IC50 came out at 4.3 µM.

For `COc1cccc(NC(=O)c2ccc(Nc3ccc4c(ccn4CCCN(C)C)c3)cc2)c1` [Compound 4103, 4-((1-(3-(dimethylamino)propyl)-1H-indol-5-yl)amino)-N-(3-methoxyphenyl)benzamide], the IC50 is 5 µM in assay [1] (setting [7]); 5.4 µM in the assay with SK-Mel-28 melanoma cells (setting [8]); 2.7 µM in assay [2] (setting [9]); 3 µM in assay [3] (setting [10]); 2.9 µM in assay [4] (setting [11]); 5.4 µM in assay [5] (setting [12]). In assay [6] (setting [13]), this compound yielded an IC50 of 3.7 µM.

Take `COc1ccc(NC(=O)c2ccc(Nc3ccc4c(ccn4CCCN(C)C)c3)cc2)cc1` [Compound 4100, 4-((1-(3-(dimethylamino)propyl)-1H-indol-5-yl)amino)-N-(4-methoxyphenyl)benzamide]: the IC50 in assay [1] (setting [7]) is greater than 30 µM; in the assay with SK-Mel-28 melanoma cells (setting [8]), 2.5 µM; in assay [2] (setting [9]), 5.2 µM; in assay [3] (setting [10]), 4.5 µM; in assay [4] (setting [11]), 3.6 µM; in assay [5] (setting [12]), greater than 30 µM. The IC50 in assay [6] (setting [13]) is greater than 30 µM.

Consider `COc1cccc(NC(=O)c2cccc(Cc3ccc4c(c3)c(C)c(C)n4CCCN(C)C)c2)c1` [Compound 4054], for which the IC50 in assay [1] (setting [7]) was 5.1 µM; in the assay on SK-Mel-28 melanoma cells (setting [8]), 4.1 µM; in assay [2] (setting [9]) it was 4.6 µM; in assay [3] (setting [10]), 3.9 µM; in assay [4] (setting [11]) it was 4.5 µM; in assay [5] (setting [12]), 3.9 µM. Also, the IC50 in assay [6] (setting [13]) came to 4.5 µM.

On to `Cc1c(C)n(CCCN2CCN(C)CC2)c2ccc(C(=O)N3CCN(CCc4ccc(F)cc4)CC3)cc12` [Compound 4120, (2,3-dimethyl-1-(3-(4-methylpiperazin-1-yl)propyl)-1H-indol-5-yl)(4-(4-fluorophenethyl)piperazin-1-yl)methanone], for which the IC50 in assay [1] (setting [7]) was greater than 30 µM; with SK-Mel-28 melanoma cells (setting [8]) it was 17.7 µM; in assay [2] (setting [9]) it was greater than 30 µM; in assay [3] (setting [10]), 23 µM; in assay [4] (setting [11]), 13.8 µM; in assay [5] (setting [12]), greater than 30 µM. This compound had an IC50 in assay [6] (setting [13]) greater than 30 µM.

For `Cc1c(C)n(CCCN(C)C)c2ccc(Oc3cccc(C(=O)Nc4cccc(F)c4)c3)cc12` [Compound 4064], the IC50 is 3.8 µM in assay [1] (setting [7]); 2.7 µM with SK-Mel-28 melanoma cells (setting [8]); 3.3 µM in assay [2] (setting [9]); 3.5 µM in assay [3] (setting [10]); 2.4 µM in assay [4] (setting [11]); 2.6 µM in assay [5] (setting [12]). In assay [6] (setting [13]), this compound had an IC50 of 3.4 µM.

Turning to `CN(C)CCCn1ccc2cc(Nc3ccc(C(=O)Nc4ccccc4)cc3)ccc21` [Compound 4026, 4-((1-(3-(dimethylamino)propyl)-1H-indol-5-yl)amino)-N-phenylbenzamide], the IC50 is 15.4 µM in assay [1] (setting [7]); 5.9 µM in the assay on SK-Mel-28 melanoma cells (setting [8]); 3.5 µM in assay [2] (setting [9]); 3.8 µM in assay [3] (setting [10]); 3.7 µM in assay [4] (setting [11]); 6.1 µM in assay [5] (setting [12]). The IC50 in assay [6] (setting [13]) came to 5 µM.

For `CN(C)CCCn1ccc2cc(Nc3cccc(C(=O)Nc4ccc5c(c4)OCO5)c3)ccc21` [Compound 4069, N-(benzo[d][1,3]dioxol-5-yl)-3-((1-(3-(dimethylamino)propyl)-1H-indol-5-yl)amino)benzamide], the IC50 was greater than 30 µM in assay [1] (setting [7]); 2.5 µM in the assay on SK-Mel-28 melanoma cells (setting [8]); 4.2 µM in assay [2] (setting [9]); 4.2 µM in assay [3] (setting [10]); 3.4 µM in assay [4] (setting [11]); 9.9 µM in assay [5] (setting [12]). Also, in assay [6] (setting [13]), the IC50 was found to be 4.4 µM.

`COc1cccc(NC(=O)c2ccc(Oc3ccc4c(c3)c(C)c(C)n4CCCN(C)C)cc2)c1` [Compound 4097, 4-((1-(3-(dimethylamino)propyl)-2,3-dimethyl-1H-indol-5-yl)oxy)-N-(3-methoxyphenyl)benzamide]: the IC50 worked out at 3.5 µM in assay [1] (setting [7]); 3.6 µM in the assay with SK-Mel-28 melanoma cells (setting [8]); 2.5 µM in assay [2] (setting [9]); 3 µM in assay [3] (setting [10]); 2.9 µM in assay [4] (setting [11]); 4.9 µM in assay [5] (setting [12]). Moreover, the IC50 in assay [6] (setting [13]) is 3.5 µM.

For the compound `CN(C)CCCn1ccc2cc(Cc3cccc(C(=O)Nc4ccc(F)cc4)c3)ccc21` [Compound 4045, 3-((1-(3-(dimethylamino)propyl)-1H-indol-5-yl)methyl)-N-(4-fluorophenyl)benzamide], the IC50 in assay [1] (setting [7]) was found to be 5.2 µM; in the assay on SK-Mel-28 melanoma cells (setting [8]) it was 3.7 µM; in assay [2] (setting [9]) it was 2.6 µM; in assay [3] (setting [10]) it was 3.7 µM; in assay [4] (setting [11]), 3.8 µM; in assay [5] (setting [12]), 5.7 µM. In assay [6] (setting [13]), this compound showed an IC50 of 5.5 µM.

Consider `Cc1c(C)n(CCCN(C)C)c2ccc(Oc3cccc(C(=O)Nc4ccc(F)cc4)c3)cc12` [Compound 4061], for which the IC50 in assay [1] (setting [7]) came out at 3.7 µM; in the assay on SK-Mel-28 melanoma cells (setting [8]) it was 2.5 µM; in assay [2] (setting [9]) it was 3.2 µM; in assay [3] (setting [10]) it was 3 µM; in assay [4] (setting [11]), 2.3 µM; in assay [5] (setting [12]), 2.2 µM. In assay [6] (setting [13]), this compound returned an IC50 of 3 µM.

As to `CN(C)CCCn1ccc2cc(Nc3cccc(C(=O)Nc4ccc(F)cc4)c3)ccc21` [Compound 4099, 3-((1-(3-(dimethylamino)propyl)-1H-indol-5-yl)amino)-N-(4-fluorophenyl)benzamide], the IC50 in assay [1] (setting [12]) is greater than 30 µM; in the assay on SK-Mel-28 melanoma cells (setting [12]) it was 3.7 µM; in assay [2] (setting [12]), 3.4 µM; in assay [3] (setting [12]), 4.1 µM; in assay [4] (setting [12]), 3.9 µM; in assay [5] (setting [12]) it was 4.9 µM. In assay [6] (setting [12]), the IC50 worked out at 5.5 µM.

As for `COc1cccc(CCN2CCN(Cc3ccc4c(c3)c(C)c(C)n4CCCN3CCN(C)CC3)CC2)c1` [Compound 4115, 5-((4-(3-methoxyphenethyl)piperazin-1-yl)methyl)-2,3-dimethyl-1-(3-(4-methylpiperazin-1-yl)propyl)-1H-indole], the IC50 in assay [1] (setting [14]) came to 6.2 µM; with SK-Mel-28 melanoma cells (setting [15]), 1.1 µM; in assay [2] (setting [16]), 3.4 µM; in assay [3] (setting [17]), 8.8 µM; in assay [4] (setting [18]), 4.9 µM; in assay [5] (setting [19]) it was 9.4 µM. This compound also showed an IC50 in assay [6] (setting [20]) of 6.1 µM.

For the compound `COc1cccc(NC(=O)c2cccc(Cc3ccc4c(ccn4CCCN(C)C)c3)c2)c1` [Compound 4049, 3-((1-(3-(dimethylamino)propyl)-1H-indol-5-yl)methyl)-N-(3-methoxyphenyl)benzamide], the IC50 was 3.2 µM in assay [1] (setting [7]); 3.1 µM in the assay on SK-Mel-28 melanoma cells (setting [8]); 3.4 µM in assay [2] (setting [9]); 3 µM in assay [3] (setting [10]); 3.3 µM in assay [4] (setting [11]); 3.4 µM in assay [5] (setting [12]). Moreover, the IC50 in assay [6] (setting [13]) was 3.3 µM.

As to `Cc1c(C)n(CCCN2CCN(C)CC2)c2ccc(CN3CCN(CCc4cccc(O)c4)CC3)cc12` [Compound 4116, 3-(2-(4-((2,3-dimethyl-1-(3-(4-methylpiperazin-1-yl)propyl)-1H-indol-5-yl)methyl)piperazin-1-yl)ethyl)phenol], the IC50 is 6 µM in assay [1] (setting [14]); 3.2 µM with SK-Mel-28 melanoma cells (setting [15]); 4.1 µM in assay [2] (setting [16]); 10.1 µM in assay [3] (setting [17]); 4.6 µM in assay [4] (setting [18]); 13.2 µM in assay [5] (setting [19]). This compound also displayed an IC50 in assay [6] (setting [20]) of 7.6 µM.
